From US20240043470A1, “MACROCYCLIC COMPOUNDS AS PROTEASOME INHIBITORS” (CORNELL UNIVERSITY, priority 2017, published 2024) come the findings set out here.

Read-outs that look alike come from different tables or passages of the source.

For data set [1] the following is noted: rcm bond.
For data set [2] the following is noted: 16-membered ring.
A further data set concerns the target β5c of hu c-20S (Homo sapiens (Human), UniProt P20618+P28074). As to the kind of experiment: IC50 determination against β5c of human constitutive proteasome (suc-LLVY-AMC hydrolysis).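 Note: IC50 obtained by fitting initial reaction velocities to a dose-dependent inhibition model, with SDS present as proteasome activator.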 Type of data set: biochemical. The following applies: 0.2 nM c-20S, 25 μM suc-LLVY-AMC.
The next data set concerns the target β5i of hu i-20S (Homo sapiens (Human), UniProt P20618+P28062). Nature of the data set: IC50 determination against β5i of human immunoproteasome (Ac-ANW-AMC hydrolysis).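 Note: enzyme activity taken as the initial reaction velocity per well, with SDS added to activate the proteasome.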 The following applies: β5i, 0.4 nM i-20S, 15 μM Ac-ANW-AMC. Type of data set: biochemical.

In turn, `O=C1CCc2cccc(c2)OCC=CC[C@@H](C(=O)NC2CCCC2)NC(=O)[C@H](CCc2ccc(F)cc2)N1` displayed a ring closure, yield of all isomers in data set [1] (from C=CCOc1cccc(CCC(=O)N[C@@H](CCc2ccc(F)cc2)C(=O)N[C@@H](CC=C)C(=O)NC2CCCC2)c1, Grubbs catalyst 2nd generation, 1,2-dichloroethane, […], 60.0 °C, 12.0 h) of 65%.
With `O=C1CCc2cccc(c2)OCC=CC[C@@H](C(=O)NC2CCCC2)NC(=O)[C@H](CC(=O)N2CCCC2C2CC2)N1` (stereo partly shown), the ring closure, yield of all isomers in data set [1] (from C=CCOc1cccc(CCC(=O)N[C@@H](CC(=O)N2CCCC2C2CC2)C(=O)N[C@@H](CC=C)C(=O)NC2CCCC2)c1, Grubbs 2nd generation, 1,2-dichloroethane, 4.09 mM, 50.0 °C, 12.0 h) was 46.7%.
“(hex-5-enoyl)-Asp(OBn)-((2S)-2-aminonon-8-enoic acid)-OtBu?” displayed a ring closure, isolated yield in data set [2] (the molecule shown is the open-chain precursor, rcm bond, Grubbs II, toluene, 1.27 mM, 40.0 °C) of 92.6%.
Regarding `COC(=O)[C@@H]1CCCCCC=CCCC(Cc2ccccc2)C(=O)N[C@@H](CC(=O)OCc2ccccc2)C(=O)N1` (stereo partly shown), the ring closure, yield of all isomers in data set [1] (from C=CCCCCC[C@H](NC(=O)[C@H](CC(=O)OCc1ccccc1)NC(=O)C(CCC=C)Cc1ccccc1)C(=O)OC, Grubbs 2nd generation, 1,2-dichloroethane, 10.75 mM, 50.0 °C, 24.0 h) came out at 53%.
The compound “(5S,8S,11S)-11-Acetamido-7,10-dioxo-8-propyl-N-(2,2,2-trifluoroethyl)-2-oxa-6,9-diaza-1,3(1,3)-dibenzenacyclododecaphane-5-carboxamide” registered a ring closure, isolated yield in data set [2] (amide bond, HATU/DIEA, DMF, […], 0.0 °C) of 18.7%.
As to `O=C(NC1CCCC1)[C@@H]1CC=CCOc2cccc(c2)C[C@H](N2CCCC2=O)C(=O)N[C@@H](CCN2CCC(F)(F)CC2)C(=O)N1`, in data set [1] (from C=CCOc1cccc(C[C@@H](C(=O)N[C@@H](CCN2CCC(F)(F)CC2)C(=O)N[C@@H](CC=C)C(=O)NC2CCCC2)N2CCCC2=O)c1, Grubbs catalyst 2nd Generation, 1,2-dichloroethane, 5.07 mM, 60.0 °C, 12.0 h), the ring closure, yield of all isomers is 61.6%.
Usually IC50 stands for the concentration that inhibits the measured activity by half. For `O=C1CCC/C=C\CCCCC[C@@H](C(=O)NCc2cccc3ccccc23)NC(=O)[C@H](CC(=O)N2CCCC2)N1` [Compound 4-05, (2S,5S,11Z)—N-(1-Naphthylmethyl)-3,16-dioxo-2-(2-oxo-2-pyrrolidin-1-yl-ethyl)-1,4-diazacyclohexadec-11-ene-5-carboxamide], the half-maximal inhibitory concentration (IC50) at β5c of hu c-20S was over 100 µM; against β5i of hu i-20S it was 4.36 µM. In data set [2] (from (hex-5-enoyl)-Asp(pyrrolidin-1-yl amide)-((2S)-2-aminonon-8-enoic acid)-NHCH2(1-naphthyl)?, rcm bond, Grubbs II, CH2Cl2, 1.11 mM, 50.0 °C), this compound showed a ring closure, isolated yield of 36%. The compound also returned a ring closure, yield of all isomers in data set [1] (from C=CCCCCC[C@H](NC(=O)[C@H](CC(=O)N1CCCC1)NC(=O)CCCC=C)C(=O)NCc1cccc2ccccc12, Grubbs 2nd Generation catalyst, CH2Cl2, 1.11 mM, 50.0 °C, 20.0 h) of 36%.
“Ac-Gly(allyl)-hPhe-Phe(3-OAllyl)-NHCH2CF3?” registered a ring closure, isolated yield in data set [2] (the molecule shown is the open-chain precursor, rcm bond, Grubbs II, DCM, 24.9 mM, 40.0 °C) of 88.8%.
Regarding `CC(=O)N[C@H]1CC=CCOc2cccc(c2)C[C@@H](C(=O)NCC(F)(F)F)NC(=O)[C@H](CCc2ccccc2)NC1=O`, in data set [1] (from C=CCOc1cccc(C[C@H](NC(=O)[C@H](CCc2ccccc2)NC(=O)[C@H](CC=C)NC(C)=O)C(=O)NCC(F)(F)F)c1, Grubbs 2nd generation catalyst, DCM, 24.9 mM, 40.0 °C, 4.0 h), the ring closure, yield of all isomers came to 88.8%.
“(7S,10S,13S,E)-13-Acetamido-9,12-dioxo-10-phenethyl-N-(2,2,2-trifluoroethyl)-2-oxa-8,11-diaza-1(1,3)-benzenacyclotetradecaphan-4-ene-7-carboxamide” showed a ring closure, isolated yield in data set [2] (rcm bond, Grubbs II, DCM, 5.3 mM, 40.0 °C) of 47%.
As to “(2-benzylhex-5-enoyl)-Asp(OBn)-(2-aminonon-8-enoic acid)-OMe?”, in data set [2] (the molecule shown is the open-chain precursor, rcm bond, Grubbs II, DCE, […], 50.0 °C), the ring closure, isolated yield is 53%.
Consider `O=C(N[C@H]1Cc2cccc(c2)Oc2cccc(c2)C[C@@H](C(=O)NCC(F)(F)F)NC(=O)[C@H](CCc2ccccc2)NC1=O)C1CC1` [Compound 1-54, (5S,8S,11S)-11-(Cyclopropanecarboxamido)-7,10-dioxo-8-phenethyl-N-(2,2,2-trifluoroethyl)-2-oxa-6,9-diaza-1,3(1,3)-dibenzenacyclododecaphane-5-carboxamide], for which the IC50 against β5c of hu c-20S and against β5i of hu i-20S was over 100 µM in each case.
`CC(C)(C)OC(=O)[C@@H]1CCCCCC=CCCCC(=O)N[C@@H](CC(=O)OCc2ccccc2)C(=O)N1` had a ring closure, yield of all isomers in data set [1] (from C=CCCCCC[C@H](NC(=O)[C@H](CC(=O)OCc1ccccc1)NC(=O)CCCC=C)C(=O)OC(C)(C)C, Grubbs 2nd Generation catalyst, toluene, 1.27 mM, 40.0 °C, 16.0 h) of 92.6%.
On to `O=C(CC(F)(F)F)N[C@H]1Cc2cccc(c2)Oc2cccc(c2)C[C@@H](C(=O)NCC(F)(F)F)NC(=O)[C@H](CCc2ccccc2)NC1=O` [Compound 1-55, (5S,8S,11S)-7,10-Dioxo-8-phenethyl-N-(2,2,2-trifluoroethyl)-11-(3,3,3-trifluoropropanamido)-2-oxa-6,9-diaza-1,3(1,3)-dibenzenacyclododecaphane-5-carboxamide], for which the concentration for half-maximal inhibition (IC50) against β5c of hu c-20S and on β5i of hu i-20S was over 100 µM each time.
In the case of `CC(=O)N[C@H]1Cc2cccc(c2)OCC=CC[C@@H](C(=O)NCC(F)(F)F)NC(=O)[C@H](CCc2ccccc2)NC1=O`, the ring closure, yield of all isomers in data set [1] (from C=CCOc1cccc(C[C@H](NC(C)=O)C(=O)N[C@@H](CCc2ccccc2)C(=O)N[C@@H](CC=C)C(=O)NCC(F)(F)F)c1, Grubbs 2nd generation catalyst, DCM, 5.33 mM, 40.0 °C, 4.0 h) was 47%.
Regarding `CN(C)[C@H]1Cc2cccc(c2)Oc2cccc(c2)C[C@@H](C(=O)NCC(F)(F)F)NC(=O)[C@H](CCc2ccccc2)NC1=O` [Compound 1-57, (5S,8S,11S)-11-(Dimethylamino)-7,10-dioxo-8-phenethyl-N-(2,2,2-trifluoroethyl)-2-oxa-6,9-diaza-1,3(1,3)-dibenzenacyclododecaphane-5-carboxamide], the IC50 was 1.1 µM against β5c of hu c-20S and 18.7 µM on β5i of hu i-20S.
For `O=C1CCCCCCCCCC[C@@H](C(=O)NCc2cccc3ccccc23)NC(=O)[C@H](CC(=O)N2CCC[C@@H]2c2ccccc2)N1` [Compound 4-08], in that order: over 100 µM and 33.4 µM.
With `CN(C)[C@H]1Cc2cccc(c2)OCCCC[C@@H](C(=O)NC2CCCC2)NC(=O)[C@H](CCc2ccc(F)cc2)NC1=O` [Compound 3-36], the half-maximal inhibitory concentration (IC50) against β5c of hu c-20S was 9.5 µM; on β5i of hu i-20S, over 100 µM.
Regarding `O=C1CCc2cccc(c2)Oc2ccc(cc2)C[C@@H](C(=O)NCc2cccc3ccccc23)NC(=O)[C@H](CC(=O)N2CCCC2)N1` (single isomer, unassigned) [Compound 2-03-A, N-(Naphthalen-1-ylmethyl)-7,10-dioxo-8-(2-oxo-2-(pyrrolidin-1-yl)ethyl)-2-oxa-6,9-diaza-1(1,3),3(1,4)-dibenzenacyclododecaphane-5-carboxamide], the 50% inhibitory concentration (IC50) stood at 18.5 µM against β5c of hu c-20S and 10.1 µM against β5i of hu i-20S.
Take `CC(=O)N[C@H]1Cc2cccc(c2)OCCCC[C@@H](C(=O)NCC(F)(F)F)NC(=O)[C@H](CCc2ccccc2)NC1=O` [Compound 3-02, (3S,6S,9S)-3-Acetamido-4,7-dioxo-6-(2-phenylethyl)-N-(2,2,2-trifluoroethyl)-14-oxa-5,8-diazabicyclo[13.3.1]nonadeca-1(19),15,17-triene-9-carboxamide]: the IC50 against β5c of hu c-20S worked out at 0.433 µM; against β5i of hu i-20S it was 5.88 µM.
As to `O=C1CCc2cccc(c2)OCCCC[C@@H](C(=O)NC2CCCC2)NC(=O)[C@H](CCN2CCC(F)(F)CC2)N1` [Compound 3-43], the IC50 against β5c of hu c-20S was 75.5 µM; at β5i of hu i-20S it was over 100 µM.
For `O=C1CCc2cccc(c2)OCCCC[C@@H](C(=O)NCc2ccccc2F)NC(=O)[C@H](CC(=O)N2CCCC2C2CC2)N1` (single isomer, unassigned) [Compound 3-46-A], the concentration for half-maximal inhibition (IC50) against β5c of hu c-20S was determined as 0.0723 µM; against β5i of hu i-20S, 0.068 µM.
Take `CCN(CC)[C@H]1Cc2cccc(c2)Oc2cccc(c2)C[C@@H](C(=O)NCc2ccccc2)NC(=O)[C@H](CCc2ccccc2)NC1=O` [Compound 1-16]: the half-maximal inhibitory concentration (IC50) against β5c of hu c-20S worked out at 22.9 µM; against β5i of hu i-20S, 100 µM.
For `O=C1CCCCCCCCOC[C@@H](C(=O)NCc2ccccc2F)NC(=O)[C@H](CC(=O)N2CCC[C@@H]2c2ccccc2)N1` [Compound 4-16], in that order: 4.12 µM and 51.3 µM.
For `CC(=O)N[C@H]1Cc2cccc(c2)OC/C=C/C[C@@H](C(=O)NCC(F)(F)F)NC(=O)[C@H](CCc2ccccc2)NC1=O` [Compound 3-01, (7S,10S,13S,E)-13-Acetamido-9,12-dioxo-10-phenethyl-N-(2,2,2-trifluoroethyl)-2-oxa-8,11-diaza-1(1,3)-benzenacyclotetradecaphan-4-ene-7-carboxamide], in that order: 0.78 µM and 15.6 µM.
`O=C1CCc2cccc(c2)Oc2ccc(cc2)CC(C(=O)NCc2cccc3ccccc23)NC(=O)C(CC(=O)N2CCCC2)N1` (stereo not shown) [Compound 2-03-B, N-(Naphthalen-1-ylmethyl)-7,10-dioxo-8-(2-oxo-2-(pyrrolidin-1-yl)ethyl)-2-oxa-6,9-diaza-1(1,3),3(1,4)-dibenzenacyclododecaphane-5-carboxamide]: the IC50 was over 100 µM against β5c of hu c-20S and 0.96 µM at β5i of hu i-20S.
As to `Cn1cc(CNC(=O)[C@@H]2Cc3cccc(c3)Oc3cccc(c3)C[C@H](NS(C)(=O)=O)C(=O)N[C@@H](CCc3ccccc3)C(=O)N2)cn1` [Compound 1-04, (5S,8S,11S)—N-((1-Methyl-1H-pyrazol-4-yl)methyl)-11-(methylsulfonamido)-7,10-dioxo-8-phenethyl-2-oxa-6,9-diaza-1,3(1,3)-dibenzenacyclododecaphane-5-carboxamide], the IC50 against β5c of hu c-20S was over 100 µM; against β5i of hu i-20S it was 7.22 µM.
For `O=C1CCc2cccc(c2)OCCCC[C@@H](C(=O)NC2CCCC2)NC(=O)[C@H](CC(=O)N2CCCC2C2CC2)N1` (single isomer, unassigned) [Compound 3-45-A], in that order: 12.3 µM and over 100 µM.
